System: rat leukemia L 5222
Assay: Chemotherapeutic activity against rat Leukemia L5222
Type: in vivo, rat (BD IX rats)
Procedure: Chemotherapeutic activity of methylformylamino-CNU against rat Leukemia L5222 (CNU=chloroethyl-nitroso-urea)
The compound to be tested was solved in Chremophor EL/ethanol/physiological saline and a single dose was administered intraperitoneally into tumor inoculated BD IX rats. The experiment involved an untreated control group and a number of treated groups. The doses used and the effects of the praeterminal treatment are summarized in the following Table from which the cures (animals free of tumor after 120 days) and the increase in life span (ILS, expressed as percentage of survival of the treated test group to the untreated control group) are evident.
Considering the fact that the true measure of the effectiveness of a drug against a neoplastic desease is the ability of the drug to kill the neoplastic cells at dosages that are not toxic to the host animal and that a quantitative evaluation of drug action is usually obtained by using the L1210 leucemia system in mice, it will be realized that in this test the tumor cells are injected into the peritoneal cavity of a mouse which thereafter is treated with the drug to be tested at a very early time after the inoculation of the tumor, i.e. at the first or second day after tumor inoculation. Thus such screening is done under very favourable test conditions for the drug. Contrary thereto the administration of the drug to be tested is performed relatively late in the case of the rat leucemia L5222, i.e. at the 8th day after tumor inoculation. It must, therefore, be taken that at that time tumor cells have colonized the cerebral region, i.e. the meninges, so that cures can only be obtained if the drug has an activity high enough to kill the leucemia cells in the cerebral region in a praeterminal state. Thus by far more severe test conditions are involved when treating rat leucemia L5222 or type Yoshida sarcoma which is a tumor model and which are hard to influence by known drugs.

[1] = single i.p. dose printed 279 mg/kg

## CN(C=O)NC(=O)N(CCCl)N=O [methylformylamino-CNU, 1-(2-chloroethyl)-1-nitroso-3-(methyl-formyl-amino)urea]
rat, in vivo
  effectiveness in rat leukemia L 5222 (in words): active
Single i.p. dose 7 mg/kg
  ILS (increase in life span): 70%
Single i.p. dose 7 mg/kg, 7 mg/kg
  cures (animals free of tumor after 120 days): 3/8 and three cured animals out of eight
Single i.p. dose 70 mg/kg
  ILS (increase in life span): 610%
  cures (animals free of tumor after 120 days): 3/9
Single i.p. dose 88 mg/kg
  ILS (increase in life span): 230%
  cures (animals free of tumor after 120 days): 2/6
Single i.p. dose 111 mg/kg
  ILS (increase in life span): 250%
Single i.p. dose 176 mg/kg
  ILS (increase in life span): 40%
Single i.p. dose 11,1 mg/kg
  ILS (increase in life span): 100%
  cures (animals free of tumor after 120 days): 2/8
Single i.p. dose 17,6 mg/kg
  ILS (increase in life span): 150%
  cures (animals free of tumor after 120 days): 2/8
Single i.p. dose 44,2 mg/kg
  ILS (increase in life span): 150%
  cures (animals free of tumor after 120 days): 2/8
[1]
  ILS (increase in life span): 175%
  cures (animals free of tumor after 120 days): 3/8
